Source: ChEMBL document CHEMBL2203217, “Prohormone-substrate peptide sequence recognition by peptidylglycine α-amidating monooxygenase and its reflection in increased glycolate inhibitor potency” (Bioorg Med Chem Lett, 2012)

What was measured:
[1] = target: T1, Peptidyl-glycine alpha-amidating monooxygenase (Homo sapiens, UniProt P19021); test: Competitive inhibition of secreted PAM in human DMS53 cell culture medium using as(R)-Tyr-(S)-Val-Gly as substrate after 2 hrs by HPLC analysis; design: species or system DMS-53
T1 sequence (P19021 whole entry): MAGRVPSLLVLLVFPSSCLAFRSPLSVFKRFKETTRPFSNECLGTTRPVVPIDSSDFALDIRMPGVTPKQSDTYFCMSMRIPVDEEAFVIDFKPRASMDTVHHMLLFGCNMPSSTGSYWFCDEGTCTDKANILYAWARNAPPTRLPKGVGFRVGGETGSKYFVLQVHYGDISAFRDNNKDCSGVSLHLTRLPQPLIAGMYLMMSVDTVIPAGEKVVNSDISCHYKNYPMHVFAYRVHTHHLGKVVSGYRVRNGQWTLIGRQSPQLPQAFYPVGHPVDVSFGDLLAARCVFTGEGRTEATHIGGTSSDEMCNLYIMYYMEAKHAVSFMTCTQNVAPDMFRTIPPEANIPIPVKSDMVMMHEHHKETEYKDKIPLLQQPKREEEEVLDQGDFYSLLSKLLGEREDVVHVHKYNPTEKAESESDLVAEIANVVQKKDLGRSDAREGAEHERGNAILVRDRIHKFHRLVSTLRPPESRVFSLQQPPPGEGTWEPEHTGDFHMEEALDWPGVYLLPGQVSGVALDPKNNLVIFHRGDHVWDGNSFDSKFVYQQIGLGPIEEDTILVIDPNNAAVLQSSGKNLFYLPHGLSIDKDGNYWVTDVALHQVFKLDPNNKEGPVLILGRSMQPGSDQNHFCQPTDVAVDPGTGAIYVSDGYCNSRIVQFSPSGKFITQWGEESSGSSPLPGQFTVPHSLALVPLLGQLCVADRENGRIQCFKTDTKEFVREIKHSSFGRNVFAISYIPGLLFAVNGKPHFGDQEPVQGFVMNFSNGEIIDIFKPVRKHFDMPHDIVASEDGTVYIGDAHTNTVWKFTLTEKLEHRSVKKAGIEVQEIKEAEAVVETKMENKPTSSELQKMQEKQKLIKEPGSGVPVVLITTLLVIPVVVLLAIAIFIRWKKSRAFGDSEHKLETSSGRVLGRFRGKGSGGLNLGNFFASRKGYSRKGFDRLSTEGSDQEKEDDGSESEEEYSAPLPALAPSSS

[2] = target: T1, Peptidyl-glycine alpha-amidating monooxygenase; test: Competitive inhibition of PAM in human DMS53 cells using as(R)-Tyr-(S)-Val-Gly as substrate after 2 hrs by HPLC analysis; type: cell-based, DMS-53

IC50 [1]: 160 µM
IC50 [2]: 560 µM
SMILES: C[C@H](NC(=O)CN)C(=O)N[C@@H](Cc1ccccc1)C(=O)OCC(=O)O
